Assay results reported in EP4596566A1, “COMPOUND PRODUCTION METHOD” (The University of Tokyo, priority 2022, dated 2024).
*1 amine or outer side, *2 acyl side, *3 side chain or, on linkers, in order; H or OH if unused. Where a SMILES comes first, the peptide text is derived from it. Bridges are numbered along the chain shown (N, C = ends). [ ]: non-standard residue; d: D form. The star is where a group is joined. X2 = C=C(N[*:2])c1nc(-c2nc(-c3nc(C(=O)NCCC(=O)NCCOCCOCCCCCCCl)cs3)ccc2C(=O)[*:1])cs1; X1 = C=C(N[*:2])c1nc(-c2nc(-c3nc(C(=O)OC)cs3)ccc2C(=O)[*:1])cs1; Nle = CCCC[C@H](N)C(=O)O; Dhb = C/C=C(\N)C(=O)O; Cam = NC(=O)C*

How the values were obtained:
[1] = tested on: NFkB reporter gene activity; test: NFkB reporter gene assay in THP1-XBlue stable cell line; assay type: cell-based; conditions: read-out: inhibition (IC50) of NFkB reporter gene activity
[2] = molecular target: T1, IRAK4 (Homo sapiens, UniProt Q9NWZ3); test: Surface plasmon resonance (SPR) binding affinity to IRAK4
T1 sequence (Q9NWZ3 1-460): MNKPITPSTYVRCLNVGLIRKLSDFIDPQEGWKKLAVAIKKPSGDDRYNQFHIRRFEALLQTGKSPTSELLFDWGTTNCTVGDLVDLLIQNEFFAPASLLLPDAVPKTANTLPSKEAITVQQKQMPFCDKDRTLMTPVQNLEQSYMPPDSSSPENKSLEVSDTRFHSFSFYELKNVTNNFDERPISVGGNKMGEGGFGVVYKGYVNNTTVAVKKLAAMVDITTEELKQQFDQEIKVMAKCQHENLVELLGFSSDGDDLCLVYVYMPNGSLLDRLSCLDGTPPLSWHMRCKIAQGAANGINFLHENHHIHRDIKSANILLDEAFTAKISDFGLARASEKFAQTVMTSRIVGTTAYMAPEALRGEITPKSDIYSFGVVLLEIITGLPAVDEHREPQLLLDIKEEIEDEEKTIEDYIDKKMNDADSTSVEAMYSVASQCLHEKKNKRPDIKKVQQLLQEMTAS
Experimental: Next, the binding affinity of each of the synthesized thiopeptides (14 types excluding IR1-ct and IR15-ct in Figure 8) to the target IRAK4 and TLR10 was examined using surface plasmon resonance (SPR). […] Next, using an ADP-Glo-based kinase inhibition assay, the IC50 values of 4 types of thiopeptides for IRAK4 excluding IR1-ct and IR15-ct were evaluated.

[3] = Metabolic stability in human serum at 37°C, LC/MS; assay type: in vitro ADME
Experimental: The compounds were incubated with a human serum at 37°C, and the amount of the residual test substance at various points in time was quantified by LC/MS with respect to an internal standard substance. […] Next, it was examined whether or not the half-lives of the compounds were affected by the reactivity of the Dha residue. The Dha residue may be conjugated with various serum thiols.
In addition, the metabolic stability of all of the 14 types of candidate thiopeptides was examined. The compound was incubated with the human serum at 37°C, and the amount of the residual thiopeptide at various points in time was quantified by LC/MS with respect to the internal standard substance. The half-life of the thiopeptide for TLR10 was generally as long as 38.2 hours, and the thiopeptide was stable.

[4] = molecular target: TNIK (Homo sapiens, UniProt Q9UKE5); test: Surface plasmon resonance (SPR) binding affinity to TNIK; conditions: ATP 1 mM, 15-fold higher than KM
Text: Surface plasmon resonance (SPR) was used to evaluate the binding affinity of the thiopeptide synthesized in Example 2 to TNIK.

Sequence of TNIK (Q9UKE5 whole entry): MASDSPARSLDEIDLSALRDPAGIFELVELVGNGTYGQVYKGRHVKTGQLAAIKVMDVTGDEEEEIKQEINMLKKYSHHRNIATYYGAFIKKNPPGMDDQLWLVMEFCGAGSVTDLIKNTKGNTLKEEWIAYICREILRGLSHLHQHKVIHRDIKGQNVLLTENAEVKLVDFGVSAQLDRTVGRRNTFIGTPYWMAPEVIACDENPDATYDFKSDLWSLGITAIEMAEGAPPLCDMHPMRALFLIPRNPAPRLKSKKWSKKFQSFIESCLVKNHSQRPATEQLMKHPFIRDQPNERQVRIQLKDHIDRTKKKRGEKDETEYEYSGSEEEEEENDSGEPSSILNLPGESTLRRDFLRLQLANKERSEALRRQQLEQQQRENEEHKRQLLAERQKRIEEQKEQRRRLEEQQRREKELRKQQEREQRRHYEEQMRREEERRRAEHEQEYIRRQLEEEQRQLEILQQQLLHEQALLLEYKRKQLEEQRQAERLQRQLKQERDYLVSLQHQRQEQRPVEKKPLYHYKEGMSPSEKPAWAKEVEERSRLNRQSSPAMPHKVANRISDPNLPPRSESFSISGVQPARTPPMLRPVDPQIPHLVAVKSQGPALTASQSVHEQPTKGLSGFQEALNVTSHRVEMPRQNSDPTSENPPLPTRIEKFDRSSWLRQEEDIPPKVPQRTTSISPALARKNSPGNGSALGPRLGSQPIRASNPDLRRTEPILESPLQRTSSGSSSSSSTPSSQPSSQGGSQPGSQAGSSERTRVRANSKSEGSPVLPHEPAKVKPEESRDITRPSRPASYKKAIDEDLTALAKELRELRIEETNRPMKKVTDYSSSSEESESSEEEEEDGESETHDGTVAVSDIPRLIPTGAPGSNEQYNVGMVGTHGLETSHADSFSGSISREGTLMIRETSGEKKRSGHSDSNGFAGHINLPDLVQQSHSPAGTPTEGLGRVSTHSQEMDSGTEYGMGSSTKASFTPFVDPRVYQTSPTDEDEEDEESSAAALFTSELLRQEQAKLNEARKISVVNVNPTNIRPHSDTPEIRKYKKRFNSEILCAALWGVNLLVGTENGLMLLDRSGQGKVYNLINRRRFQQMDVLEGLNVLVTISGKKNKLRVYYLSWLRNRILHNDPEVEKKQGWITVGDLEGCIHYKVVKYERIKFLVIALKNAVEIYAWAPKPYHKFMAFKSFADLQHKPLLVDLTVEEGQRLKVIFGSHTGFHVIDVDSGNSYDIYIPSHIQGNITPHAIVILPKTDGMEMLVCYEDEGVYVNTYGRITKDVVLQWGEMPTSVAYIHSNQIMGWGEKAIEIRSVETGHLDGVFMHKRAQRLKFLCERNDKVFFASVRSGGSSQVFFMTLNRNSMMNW

| Compound | IC50 [1] | half-life (τ1/2) in human serum [3] | also measured |
| --- | --- | --- | --- |
| C=C1NC(=O)[C@H](CCCCN)NC(=O)[C@H](Cc2ccc(O)cc2)NC(=O)[C@H]([C@@H](C)CC)NC(=O)[C@H](CCCNC(=N)N)NC(=O)[C@H](CCCNC(=N)N)NC(=O)[C@H](CCCCN)NC(=O)[C@H](Cc2ccccc2)NC(=O)[C@H](CC(C)C)NC(=O)[C@H](CCSC)NC(=O)[C@H](CO)NC(=O)[C@H](Cc2c[nH]c3ccccc23)NC(=O)c2ccc(-c3nc(C(=O)NCCC(=O)NCCOCCOCCCCCCCl)cs3)nc2-c2csc1n2 [IR1-ct] (WSMLFKRRIYK; linker N-C via X2) | 7.8 µM | – | – |
| C=C1NC(=O)[C@H](CCCCN)NC(=O)[C@H](Cc2ccc(O)cc2)NC(=O)[C@H]([C@@H](C)CC)NC(=O)[C@H](CCCNC(=N)N)NC(=O)[C@H](CCCNC(=N)N)NC(=O)[C@H](CCCCN)NC(=O)[C@H](Cc2ccccc2)NC(=O)[C@H](CC(C)C)NC(=O)[C@H](CCSC)NC(=O)[C@H](CO)NC(=O)[C@H](Cc2c[nH]c3ccccc23)NC(=O)c2ccc(-c3nc(C(=O)OC)cs3)nc2-c2csc1n2 [IR1] (WSMLFKRRIYK; linker N-C via X1) | – | – | Kd [2]: 0.0013 µM |
| C=C1NC(=O)/C(=C/C)NC(=O)[C@H](Cc2c[nH]c3ccccc23)NC(=O)[C@H](Cc2c[nH]cn2)NC(=O)[C@H](Cc2c[nH]c3ccccc23)NC(=O)[C@H]([C@@H](C)O)NC(=O)[C@H]([C@@H](C)CC)NC(=O)[C@H](Cc2ccccc2)NC(=O)[C@H](CCC(N)=O)NC(=O)[C@H](CCCNC(=N)N)NC(=O)[C@H](CCCCN)NC(=O)[C@H](CCCC)NC(=O)[C@H](CO)NC(=O)[C@H](Cc2c[nH]c3ccccc23)NC(=O)c2ccc(-c3nc(C(=O)NCCC(=O)NCCOCCOCCCCCCCl)cs3)nc2-c2csc1n2 [IR15-ct] (WS[Nle]KRQFITWHW[Dhb]; linker N-C via X2) | 7 µM | – | – |

More lines, main results first:

| IC50 [1] | half-life (τ1/2) in human serum [3] | Compound | also measured |
| --- | --- | --- | --- |
| – | 88 h | C=C1NC(=O)[C@H](CO)NC(=O)[C@H](CSCC(N)=O)NC(=O)CNC(=O)[C@H](Cc2ccc(O)cc2)NC(=O)[C@H](C)NC(=O)[C@H](CO)NC(=O)[C@H](CC(=O)O)NC(=O)CNC(=O)[C@H](CC(C)C)NC(=O)[C@H](Cc2c[nH]c3ccccc23)NC(=O)[C@H](Cc2c[nH]c3ccccc23)NC(=O)c2ccc(-c3nc(C(=O)OC)cs3)nc2-c2csc1n2 [TP4] (WWLGDSAYGC(Cam)S; linker N-C via X1) | – |
| – | 14 h | C=C1NC(=O)CNC(=O)[C@H](CC(N)=O)NC(=O)[C@H](CC(C)C)NC(=O)CNC(=O)[C@H](CCCCN)NC(=O)[C@H](C)NC(=O)[C@H]([C@@H](C)CC)NC(=O)[C@H](CO)NC(=O)[C@H](Cc2c[nH]c3ccccc23)NC(=O)[C@H](C)NC(=O)[C@H](Cc2c[nH]c3ccccc23)NC(=O)c2ccc(-c3nc(C(=O)OC)cs3)nc2-c2csc1n2 [TP8] (WAWSIAKGLNG; linker N-C via X1) | binding to TNIK in the presence of the saturated concentration of ATP [4]: bonded to TNIK |
